We go through 37 molecules from US11512053B2, “Arginine methyltransferase inhibitors and uses thereof” (priority 2013, dated 2022).

In general, IC50 refers to the concentration that inhibits the measured activity by half.

The test deals with full-length human PRMT6 (Flag- and His-tagged) (Homo sapiens, UniProt Q96LA8). Briefly: PRMT6 Biochemical Assay (3H-SAM Flashplate, peptide substrate). The conditions noted are these: read-out: Biochemical IC50 PRMT6. The text has this:
General Materials. S-adenosylmethionine (SAM), S-adenosylhomocysteine (SAH), bicine, Tween20, dimethylsulfoxide (DMSO), bovine skin gelatin (BSG), sodium butyrate and Tris(2-carboxyethyl)phosphine hydrochloride solution (TCEP) were purchased from Sigma-Aldrich at the highest level of purity possible. ^3H-SAM was purchase from American Radiolabeled Chemicals with a specific activity of 80 Ci/mmol. 384-well streptavidin Flashplates were purchased from PerkinElmer.
Substrates. Peptide representative of human histone H4 residues 36-50 was synthesized with an N-terminal linker-affinity tag motif and a C-terminal amide cap by 21st Century Biochemicals. The peptide was purified by high-performance liquid chromatography (HPLC) to greater than 95% purity and confirmed by liquid chromatography mass spectrometry (LC-MS). The sequence was Biot-Ahx-[…]-amide and contained a monomethylated lysine at position 44 (SEQ ID NO.:5).
Molecular Biology: Full-length human PRMT6 (NM_018137.2) transcript clone was amplified from an HEK 293 cDNA library, incorporating a flanking 5′ sequence encoding a FLAG tag ([…]) (SEQ ID NO.:6) fused directly to Ser 2 of PRMT6 and a 3′ sequence encoding a hexa His sequence (HHHHHH) (SEQ ID NO.:17) fused directly to Asp 375. The amplified gene was subcloned into pFastBacMam (Viva Biotech).
Protein Expression. Recombinant baculovirus were generated according to Bac-to-Bac kit instructions (Life Technologies). […] Infections were carried out at 37° C. for 48 hours, harvested by centrifugation, and stored at −80° C. for purification.
Protein Purification. […] Column was washed with 20 mM imidazole in the same buffer and Flag-PRMT6-His was eluted with 150 mM imidazole. Pooled fractions were dialysed against buffer N^1-A and further purified by anti-flag M2 affinity chromatography. Flag-PRMT6-His was eluted with 200 ug/ml FLAG peptide in the same buffer. Pooled fractions were dialysed in 20 mM Tris, 150 mM NaCl, 10% glycerol and 5 mM β-mercaptoethanol, pH 7.8. The purity of recovered protein was 95%.
General Procedure for PRMT6 Enzyme Assays on Peptide Substrates. The assays were all performed in a buffer consisting of 20 mM Bicine (pH=7.6), 1 mM TCEP, 0.005% BSG, and 0.002% Tween 20, prepared on the day of use. Compounds in 100% DMSO (1 ul) were spotted into a polypropylene 384-well V-bottom plates (Greiner) using a Platemate Plus outfitted with a 384-channel head (Thermo Scientific). DMSO (1 ul) was added to Columns 11, 12, 23, 24, rows A-H for the maximum signal control and 1 ul of SAH, a known product and inhibitor of PRMT6, was added to columns 11, 12, 23, 24, rows I-P for the minimum signal control. A cocktail (40 ul) containing the PRMT6 enzyme was added by Multidrop Combi (Thermo-Fisher). The compounds were allowed to incubate with PRMT6 for 30 min at room temperature, then a cocktail (10 ul) containing SAM and peptide was added to initiate the reaction (final volume=51 ul). The final concentrations of the components were as follows: PRMT6 was 1 nM, ^3H-SAM was 200 nM, non-radiolabeled SAM was 250 nM, peptide was 75 nM, SAH in the minimum signal control wells was 1 mM, and the DMSO concentration was 2%. The assays were stopped by the addition of non-radiolabeled SAM (10 ul) to a final concentration of 400 uM, which dilutes the ^3H-SAM to a level where its incorporation into the peptide substrate is no longer detectable. 50 ul of the reaction in the 384-well polypropylene plate was then transferred to a 384-well Flashplate and the biotinylated peptides were allowed to bind to the streptavidin surface for at least 1 hour before being washed once with 0.1% Tween20 in a Biotek ELx405 plate washer. The plates were then read in a PerkinElmer TopCount plate reader to measure the quantity of ^3H-labeled peptide bound to the Flashplate surface, measured as disintegrations per minute (dpm) or alternatively, referred to as counts per minute (cpm). […]

Setting [1] is: single experiment or average of multiple experiments.

Where two headings read alike, the source gives them in different places.

full-length human PRMT6 (Flag- and His-tagged), sequence (Q96LA8 with tags, fused parts or gaps): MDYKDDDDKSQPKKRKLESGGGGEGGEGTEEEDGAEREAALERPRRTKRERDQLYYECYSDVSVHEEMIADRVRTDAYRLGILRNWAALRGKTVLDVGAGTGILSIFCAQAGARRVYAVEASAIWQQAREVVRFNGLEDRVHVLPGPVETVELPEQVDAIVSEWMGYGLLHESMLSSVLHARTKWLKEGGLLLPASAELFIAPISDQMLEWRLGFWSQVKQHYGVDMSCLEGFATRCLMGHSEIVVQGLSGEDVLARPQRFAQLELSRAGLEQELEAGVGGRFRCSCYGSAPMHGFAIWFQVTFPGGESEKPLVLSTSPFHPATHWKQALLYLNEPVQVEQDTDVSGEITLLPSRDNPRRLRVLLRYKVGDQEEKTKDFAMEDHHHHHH

As to `CNCCN(C)Cc1c[nH]nc1[C@H]1CC[C@]2(CCN(CC(C)C)C2=O)CC1` [Compound 124], the IC50 was under 0.1 µM. Further, the half-inhibitory concentration (IC50) under setting [1] amounted to 0.0262 µM.
As for `CNCCN(C)Cc1c[nH]nc1C1CCCC(COCCOC)C1` (centres unmarked) [Compound 112], the IC50 was under 0.1 µM. The 50% inhibitory concentration (IC50) under setting [1] is 0.0574 µM.
The matching figures for `CNCCN(C)Cc1c[nH]nc1C1CCC2(CC1)CN(C)C(=O)N2CC(C)C` (centres unmarked) [Compound 151]: under 0.1 µM and 0.0477 µM.
The matching figures for `CCCOC1CC(OCCC)CC(c2n[nH]cc2CN(C)CCNC)C1` (centres unmarked) [Compound 131]: over 10 µM and over 10 µM.
As for `CNCCN(C)Cc1c[nH]nc1[C@H]1CC[C@@H](OC2CCCCC2)CC1` [Compound 140], the half-maximal inhibitory concentration (IC50) was under 0.1 µM. The half-maximal inhibitory concentration (IC50) under setting [1] is 0.024 µM.
Regarding `CNCCN(C)Cc1c[nH]nc1[C@H]1CC[C@@]2(CC1)CC(=O)N(CC(C)C)C2` [Compound 156], the half-maximal inhibitory concentration (IC50) is under 0.1 µM. For the same molecule, under setting [1], the IC50 amounted to 0.0578 µM.
The corresponding values for `CNCCN(C)Cc1c[nH]nc1[C@H]1CC[C@@]2(CCOC2(C)C)CC1` [Compound 106, Methyl [2-(methylamino)ethyl]([3-[(5R,8R)-1,1-dimethyl-2-oxaspiro[4.5]decan-8-yl]-1H-pyrazol-4-yl]methyl)amine] are under 0.1 µM and 0.0135 µM.
The matching figures for `CNCCN(C)Cc1c[nH]nc1[C@H]1CC[C@@]2(CCCO2)CC1` [Compound 143]: under 0.1 µM and 0.022 µM.
The corresponding values for `CCOC1CC(OCC)CC2(CCC(c3n[nH]cc3CN(C)CCNC)CC2)C1` (centres unmarked) [Compound 159] are under 0.1 µM and 0.0538 µM.
In the case of `CNCCN(C)Cc1c[nH]nc1[C@H]1CC[C@@]2(CCN(CC(C)C)C2=O)CC1` [Compound 129], the IC50 is under 0.1 µM. Under setting [1], the half-maximal inhibitory concentration (IC50) was found to be 0.0297 µM.
For `CNCCN(C)Cc1c[nH]nc1C1CCC(OCCOc2ccccc2)CC1` (centres unmarked) [Compound 136], the IC50 is under 0.1 µM. Further, the IC50 under setting [1] was found to be 0.0072 µM.
In the case of `CNCCN(C)Cc1c[nH]nc1C1CCC2(CC1)OC(C)CC(C)O2` (centres unmarked) [Compound 121], the IC50 is under 0.1 µM. Moreover, the half-inhibitory concentration (IC50) under setting [1] came to 0.0977 µM.
Regarding `CNCCN(C)Cc1c[nH]nc1[C@H]1CC[C@]2(CCN(Cc3ccccc3)C2=O)CC1` [Compound 128], the IC50 is under 0.1 µM. Under setting [1], the half-maximal inhibitory concentration (IC50) came out at 0.0131 µM.
As for `CNCCN(C)Cc1c[nH]nc1[C@H]1CC[C@H](O)C2(CCCCC2)C1` (racemic) [Compound 184, (1S,4S)-4-[4-({methyl[2-(methylamino)ethyl]amino}methyl)-1H-pyrazol-3-yl] spiro[5.5]undecan-1-ol], the IC50 was 0.101 to 1 µM. Also, the IC50 under setting [1] stood at 0.101 µM.
The matching figures for `CNCCN(C)Cc1c[nH]nc1C1CCC2(CC1)NC(=O)N(C)C2=O` (centres unmarked) [Compound 170]: under 0.1 µM and 0.0578 µM.
The corresponding values for `CNCCN(C)Cc1c[nH]nc1[C@H]1CC[C@]2(CCC(C)(C)O2)CC1` [Compound 104] are under 0.1 µM and 0.0405 µM.
On to `CNCCN(C)Cc1c[nH]nc1C1=CCC(CCOC)(CCOC)CC1` [Compound 173], for which the IC50 is under 0.1 µM. In addition, the half-maximal inhibitory concentration (IC50) under setting [1] is 0.0899 µM.
The matching figures for `CNCCN(C)Cc1c[nH]nc1C1CCC2(CC1)OCC(C(C)C)CO2` (centres unmarked) [Compound 150]: under 0.1 µM and 0.0556 µM.
The matching figures for `CCC(=O)N(CC1CCOCC1)[C@H]1CC[C@@H](c2n[nH]cc2CN(C)CCNC)CC1` [Compound 108]: 0.101 to 1 µM and 0.326 µM.
On to `CNCCN(C)Cc1c[nH]nc1[C@H]1CC[C@@]2(CCN(Cc3cc(F)cc(F)c3)C2=O)CC1` [Compound 126], for which the 50% inhibitory concentration (IC50) was under 0.1 µM. The IC50 under setting [1] was found to be 0.0094 µM.
In the case of `CCC(=O)N(CC1CCOCC1)[C@H]1CC[C@H](c2n[nH]cc2CN(C)CCNC)CC1` [Compound 109], the half-maximal inhibitory concentration (IC50) lay in the range of 0.101 to 1 µM. Also, the IC50 under setting [1] was determined as 0.124 µM.
In the case of `CNCCN(C)Cc1c[nH]nc1[C@H]1CC[C@@]2(CCN(Cc3ccc(OCCOC)cc3)C2=O)CC1` [Compound 120], the 50% inhibitory concentration (IC50) was under 0.1 µM. For the same molecule, under setting [1], the IC50 amounted to 0.0428 µM.
In the case of `CNCCN(C)Cc1c[nH]nc1[C@H]1CC[C@]2(CCN(Cc3ccc(F)cc3)C2=O)CC1` [Compound 123], the IC50 was under 0.1 µM. Besides, the IC50 under setting [1] came to 0.018 µM.
The matching figures for `CNCCN(C)Cc1c[nH]nc1C1CCC2(CC1)CCC(F)(F)CC2` [Compound 130]: under 0.1 µM and 0.0042 µM.
With `CNCCN(C)Cc1c[nH]nc1[C@H]1CC[C@@H](COC)CC1` [Compound 166], the half-maximal inhibitory concentration (IC50) was under 0.1 µM. Under setting [1], the IC50 came out at 0.0486 µM.
The matching figures for `CNCCN(C)Cc1c[nH]nc1C1CCC2(CC1)CC(=O)N(Cc1ccc(OC)cc1)C2` (centres unmarked) [Compound 146]: under 0.1 µM and 0.0217 µM.
The corresponding values for `CNCCN(C)Cc1c[nH]nc1[C@H]1CC[C@@H](N(CC2CCOCC2)C(=O)CC(C)C)CC1` [Compound 107] are 0.101 to 1 µM and 0.13 µM.
On to `CNCCN(C)Cc1c[nH]nc1[C@H]1CC[C@H](OCCOc2ccc(OC)cc2)CC1` [Compound 186], for which the IC50 was 0.101 to 1 µM. Moreover, under setting [1], the IC50 turned out to be 0.107 µM.
The corresponding values for `CNCCN(C)Cc1c[nH]nc1C1CCC2(CCOCC2)CC1` [Compound 178] are under 0.1 µM and 0.0157 µM.
The corresponding values for `CNCCN(C)Cc1c[nH]nc1C1CCC2(CC1)CCN(CCC(C)C)C2=O` (centres unmarked) [Compound 163] are under 0.1 µM and 0.0657 µM.
The matching figures for `CNCCN(C)Cc1c[nH]nc1C1CC(OC(C)C)CC(OC(C)C)C1` (centres unmarked) [Compound 118]: over 10 µM and over 10 µM.
On to `CNCCN(C)Cc1c[nH]nc1[C@H]1CC[C@]2(CC1)CC(=O)N(CC(C)C)C2` [Compound 155], for which the IC50 was under 0.1 µM. Under setting [1], the half-inhibitory concentration (IC50) came to 0.0608 µM.
Consider `CNCCN(C)Cc1c[nH]nc1C1CCCC(COCCC(O)CO)C1` (centres unmarked) [Compound 113], for which the IC50 is under 0.1 µM. The IC50 under setting [1] was 0.0669 µM.
The corresponding values for `CNCCN(C)Cc1c[nH]nc1C1CCC(CCOC)(CCOC)CC1` [Compound 174] are under 0.1 µM and 0.0844 µM.
The matching figures for `CNCCN(C)Cc1c[nH]nc1C1CC(COC)CC(COC)C1` (centres unmarked) [Compound 138]: 1.01 to 3 µM and 1.21 µM.
The corresponding values for `CNCCN(C)Cc1c[nH]nc1C1CCC2(CC1)CC(=O)N(CCC(C)C)C2` (centres unmarked) [Compound 165] are 0.101 to 1 µM and 0.12 µM.
Take `CNCCN(C)Cc1c[nH]nc1C1CC(C)OC(C)C1` (centres unmarked) [Compound 179]: the IC50 was under 0.1 µM. The half-inhibitory concentration (IC50) under setting [1] came out at 0.0629 µM.
